The record followed here is ChEMBL document CHEMBL1201862, “PubChem BioAssay data set” (2004).

Some test systems named below: SK-OV-3; SK-MEL-28; M14; OVCAR-5; SNB-19; HL-60; MCF7; SR; NCI-H460; DU-145; U-251; SN12C; HCC 2998; PC-3; MDA-MB-231; SK-MEL-2; CCRF-CEM; UACC-62; K562; RXF 393.
Common to all, as to test: NCI tumour cell line growth inhibition, 48 h

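Compound exposure: 48 hours, 5 concentrations, 96-well plates. The concentration for 50% growth inhibition is given as GI50.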 Active and inactive are the calls of the source. Cut-off read from the data, not from the text of the source: active = GI50 up to about 1.1 µM and inactive = higher.

`O=C1NCc2ccccc2S(=O)(=O)n2cccc21`: the GI50 in the experiment on SK-OV-3, with SK-MEL-28, in the experiment on M14, in the experiment with OVCAR-5, with SNB-19 and with HL-60 was > 100 µM (inactive) in each case. In addition, the GI50 in the experiment on MCF7 was > 100 µM (inactive); in the experiment on SR, 6.28 µM (inactive); with NCI-H460, > 100 µM (inactive); in the experiment with DU-145, > 100 µM (inactive); in the experiment on U-251 it was > 100 µM (inactive); with SN12C, > 100 µM (inactive). For the same molecule, the GI50 with HCC 2998 was > 100 µM (inactive); in the experiment with PC-3, > 100 µM (inactive); in the experiment on MDA-MB-231, > 100 µM (inactive); in the experiment on SK-MEL-2, 64.4 µM (inactive); with CCRF-CEM, > 100 µM (inactive); with UACC-62, > 100 µM (inactive).

`O=C1N2CCc3c([nH]c4ccccc34)C23CC2CCCCC12S3` (stereo not given): the GI50 was > 100 µM (inactive) with SK-OV-3; > 100 µM (inactive) in the experiment on SK-MEL-28; > 100 µM (inactive) with M14; > 100 µM (inactive) in the experiment with OVCAR-5; > 100 µM (inactive) in the experiment with SNB-19; 95.5 µM (inactive) in the experiment on HL-60. The GI50 with MCF7 was 39.4 µM (inactive); with SR, 34.5 µM (inactive); in the experiment with DU-145, > 100 µM (inactive); in the experiment with U-251, > 100 µM (inactive); in the experiment on K562, 34.6 µM (inactive); with SN12C, > 100 µM (inactive). Further, the GI50 in the experiment on PC-3 was > 100 µM (inactive); in the experiment with MDA-MB-231 it was > 100 µM (inactive); in the experiment on SK-MEL-2, < 0.01 µM (active); with UACC-62, > 100 µM (inactive); in the experiment with RXF 393, > 100 µM (inactive).

On to `COc1nc2ncc([C@@H](O)[C@H](O)CO)nc2c(=O)[nH]1`, for which the GI50 was > 100 µM (inactive) with SK-OV-3; > 100 µM (inactive) with SK-MEL-28; > 100 µM (inactive) in the experiment with M14; > 100 µM (inactive) with OVCAR-5; > 100 µM (inactive) in the experiment on SNB-19; 63.2 µM (inactive) in the experiment with HL-60. Further, the GI50 with MCF7, in the experiment with SR, with NCI-H460, in the experiment on DU-145, in the experiment on U-251 and in the experiment with K562 was > 100 µM (inactive) in each case. The GI50 with SN12C, in the experiment on PC-3, in the experiment with MDA-MB-231, in the experiment on SK-MEL-2, in the experiment on CCRF-CEM and in the experiment on UACC-62 was > 100 µM (inactive) in each case. In the experiment with RXF 393, the GI50 is > 100 µM (inactive).

Turning to `CN(C)CCNC(=O)Cn1cc([N+](=O)[O-])c(=O)c2ccccc21`, the GI50 in the experiment on SK-OV-3, in the experiment on SK-MEL-28, with M14, with OVCAR-5, in the experiment on SNB-19 and in the experiment with HL-60 was > 100 µM (inactive) in each case. In addition, the GI50 in the experiment with MCF7, with SR, with NCI-H460, with DU-145, with U-251 and with K562 was > 100 µM (inactive) each time. In addition, the GI50 in the experiment with SN12C, with HCC 2998, in the experiment with PC-3, with MDA-MB-231, in the experiment on SK-MEL-2 and in the experiment on CCRF-CEM was > 100 µM (inactive) in each case. Moreover, the GI50 in the experiment on UACC-62 is > 100 µM (inactive).

As for `C#CCOCn1cc(C)c(=O)[nH]c1=O`, the GI50 in the experiment with SK-OV-3, in the experiment with SK-MEL-28, with M14, with OVCAR-5, in the experiment with SNB-19 and with HL-60 was > 100 µM (inactive) in each case. In addition, the GI50 in the experiment with MCF7, in the experiment with SR, with NCI-H460, in the experiment on DU-145, in the experiment on U-251 and in the experiment with K562 was > 100 µM (inactive) throughout. The GI50 in the experiment on SN12C, in the experiment with HCC 2998, with PC-3, in the experiment on MDA-MB-231, with SK-MEL-2 and in the experiment on CCRF-CEM was > 100 µM (inactive) each time. Moreover, the GI50 in the experiment on UACC-62 was > 100 µM (inactive).

With `COc1ccccc1NCC(=O)Nn1c(C)nc2ccc(S(=O)(=O)Nc3ccccc3OC)cc2c1=O`, the GI50 is > 100 µM (inactive) in the experiment with SK-OV-3; > 100 µM (inactive) in the experiment with SK-MEL-28; > 100 µM (inactive) with M14; > 100 µM (inactive) with OVCAR-5; > 100 µM (inactive) in the experiment on SNB-19; 47.1 µM (inactive) with HL-60. Besides, the GI50 was 63 µM (inactive) in the experiment on MCF7; 36.5 µM (inactive) in the experiment on SR; > 100 µM (inactive) in the experiment with NCI-H460; > 100 µM (inactive) with DU-145; > 100 µM (inactive) in the experiment on U-251; 80.4 µM (inactive) in the experiment on K562. The GI50 was > 100 µM (inactive) in the experiment on SN12C; > 100 µM (inactive) in the experiment with HCC 2998; 88.5 µM (inactive) with PC-3; > 100 µM (inactive) with MDA-MB-231; > 100 µM (inactive) in the experiment on SK-MEL-2; 53.5 µM (inactive) with CCRF-CEM. For the same molecule, the GI50 with UACC-62 was 63.4 µM (inactive).

In the case of `CCCCN1C(=O)C2Cc3c([nH]c4ccccc34)C(c3cccc(O)c3)N2C1=O` (stereo not given), the GI50 in the experiment with SK-OV-3 was 16.1 µM (inactive); in the experiment on SK-MEL-28, 19 µM (inactive); in the experiment on M14, 18.3 µM (inactive); in the experiment on OVCAR-5, 18.8 µM (inactive); in the experiment on SNB-19, 19.1 µM (inactive); in the experiment on HL-60, 22.8 µM (inactive). The GI50 in the experiment with MCF7 is 18.3 µM (inactive); in the experiment with SR it was 20.5 µM (inactive); with NCI-H460, 20 µM (inactive); with DU-145, 18.6 µM (inactive); in the experiment with U-251 it was 19 µM (inactive); in the experiment on K562, 20.2 µM (inactive). Also, the GI50 is 17.9 µM (inactive) with SN12C; 18.9 µM (inactive) in the experiment on HCC 2998; 18.5 µM (inactive) in the experiment on PC-3; 15.5 µM (inactive) in the experiment with MDA-MB-231; 18 µM (inactive) with SK-MEL-2; 18.2 µM (inactive) in the experiment on CCRF-CEM. Besides, the GI50 in the experiment on UACC-62 is 17.7 µM (inactive).

Consider `O=C1c2sc(-c3ccc(Cl)cc3)cc2-n2cccc21`, for which the GI50 with SK-OV-3, in the experiment with SK-MEL-28, in the experiment on M14, in the experiment with OVCAR-5, in the experiment with SNB-19 and with MCF7 was > 100 µM (inactive) each time. For the same molecule, the GI50 in the experiment on SR, in the experiment on NCI-H460, in the experiment on DU-145, in the experiment on U-251, with K562 and in the experiment with SN12C was > 100 µM (inactive) throughout. For the same molecule, the GI50 with HCC 2998, in the experiment on PC-3, in the experiment with MDA-MB-231, in the experiment on SK-MEL-2, with CCRF-CEM and in the experiment with UACC-62 was > 100 µM (inactive) each time. In addition, the GI50 in the experiment on RXF 393 is > 100 µM (inactive).

For `CCCCCCCCCCCCC(O)C1CCC(C(O)CCCCC(O)CCCCCC2CC(CC(C)=O)C(=O)O2)O1` (stereo not given), the GI50 with SK-OV-3 is 11.9 µM (inactive); in the experiment on SK-MEL-28 it was 4.7 µM (inactive); in the experiment on M14, 7.29 µM (inactive); with OVCAR-5, 8.75 µM (inactive); in the experiment with SNB-19, 2.33 µM (inactive); with MCF7, 1.01 µM (active). Besides, the GI50 with SR was 1.34 µM (inactive); in the experiment on NCI-H460, 3.77 µM (inactive); with DU-145, 3.86 µM (inactive); with U-251, 3.11 µM (inactive); in the experiment on K562, 0.0186 µM (active); in the experiment on SN12C it was 4.83 µM (inactive). In addition, the GI50 was 8.18 µM (inactive) in the experiment on HCC 2998; 1.68 µM (inactive) in the experiment on PC-3; 2.54 µM (inactive) in the experiment with MDA-MB-231; 4.95 µM (inactive) in the experiment on SK-MEL-2; 1.43 µM (inactive) with CCRF-CEM; 1.7 µM (inactive) with UACC-62. In addition, the GI50 in the experiment on RXF 393 was 4.29 µM (inactive).

Consider `CCCCCCCCCC[C@@H](O)[C@H]1CC[C@@H]([C@H]2CC[C@H]([C@H](O)CCCCCCCCCC[C@@H]3CC(CC(C)=O)C(=O)O3)O2)O1` (stereo not given in full), for which the GI50 was 3.46 µM (inactive) with SK-MEL-28; 6.43 µM (inactive) with M14; 48.1 µM (inactive) with OVCAR-5; 2.9 µM (inactive) with SNB-19; 1.31 µM (inactive) with MCF7; 0.59 µM (active) with SR. For the same molecule, the GI50 was 0.147 µM (active) with NCI-H460; 9.27 µM (inactive) in the experiment with DU-145; 2.65 µM (inactive) in the experiment with U-251; 1.84 µM (inactive) in the experiment with K562; 2.17 µM (inactive) with SN12C; 19.1 µM (inactive) in the experiment on HCC 2998. Besides, the GI50 with PC-3 is 4.05 µM (inactive); in the experiment on MDA-MB-231 it was 3.64 µM (inactive); with SK-MEL-2, 4.94 µM (inactive); with CCRF-CEM, 12.9 µM (inactive); with UACC-62, 3.92 µM (inactive); with RXF 393, 4.99 µM (inactive).

Consider `CCCCC/C=C\C=C1\C(=O)C=C[C@@H]1C/C=C\CCCC(=O)O`, for which the GI50 in the experiment with SK-OV-3 was 7.06 µM (inactive); in the experiment on SK-MEL-28, 6.65 µM (inactive); in the experiment with M14 it was 6.85 µM (inactive); with OVCAR-5 it was 3.41 µM (inactive); in the experiment with SNB-19, 4.51 µM (inactive); with HL-60 it was 2.41 µM (inactive). Moreover, the GI50 in the experiment with MCF7 was 4.09 µM (inactive); in the experiment with SR, 1.96 µM (inactive); with NCI-H460 it was 6.04 µM (inactive); in the experiment on DU-145, 6.92 µM (inactive); with U-251, 2.48 µM (inactive); in the experiment with K562, 1.62 µM (inactive). Besides, the GI50 in the experiment on SN12C was 2 µM (inactive); with PC-3, 1.84 µM (inactive); with MDA-MB-231, 9.2 µM (inactive); in the experiment on SK-MEL-2, 3.05 µM (inactive); in the experiment on CCRF-CEM, 0.205 µM (active); in the experiment with UACC-62, 3.94 µM (inactive). The GI50 with RXF 393 is 1.94 µM (inactive).
